# Results from patent US20250000847A1, “TREATMENT OF NEURODEGENERATIVE DISEASES WITH HDAC INHIBITORS” (CASE WESTERN RESERVE UNIVERSITY, priority 2021, published 2025).
# Experiments:
# [1] = tested on: NF-κB (RelA/P65) transcriptional activity; assay: NF-κB Jurkat reporter assay; format: cell-based
# Source text: NF-κB luciferase reporter Jurkat T-cells were used to measure NF-κB transcriptional activity in response to reactive astrocyte driving cytokines with or HDAC inhibitors and other validated hits from the primary screen. NFκB luciferase reporter Jurkat T-Cells (BPS Biosciences 60651) were purchased from BPS Bioscience. Within this cell line, the firefly luciferase gene is controlled by four copies of an NF-κB response element located upstream of the TATA promoter. Following activation by an external stimulant, endogenous NF-κB transcription factors bound to the DNA response elements to induce transcription of the luciferase gene.
# spinal cord LPC lesion = assay: Lysolecithin (LPC) injection model of focal tissue damage; format: in vivo, mouse
# Procedure: This was based on a toxin-based model of CNS tissue damage, where lysolecithin (lysophosphatidylcholine (LPC)) is injected into the dorsal column of the spinal cord leading to cell death, demyelination, and axonal damage at 4 days post lesion (dpl).
# Focal tissue damage in the spinal cord was induced by the injection of 1% LPC solution. 10-12 week old C57BL/6 female mice were anesthetized using isoflurane and a T10 laminectomy was performed. 1 μL of 1% LPC was infused into the dorsal column at a rate of […]. The animals were euthanized at day twelve after the laminectomy (n=6-9 per group). […] Mice were then processed for immunohistochemistry or electron microscopy.
# Samples were processed as previously described (Najm et al., Nat Methods 8, 957-962, doi:10.1038/nmeth.1712 (2011)). Briefly, Mice were perfused with 4% PFA, 2% glutaraldehyde, and 0.1 M sodium cacodylate. Spinal cords were extracted and samples were osmicated, stained en bloc with uranyl acetate and embedded in EMbed 812, an Epon-812 substitute (EMS). Thin sections were cut, carbon-coated and imaged either on JEOL JEM-1200-EX electron microscope or a T12 electron microscope (FEI).
# [2] = 10 mg/kg daily, lesion at 12 dpl
compound,measurement,setting,value
Nc1cc(F)ccc1NC(=O)/C=C/c1cnn(C/C=C/c2ccccc2)c1 [RGFP966],RelA/P65 driven transcription (transcriptional activity),[1],decreases
same,tissue repair,"spinal cord LPC lesion; 10 mg/kg daily from −1 dpl, at 12 dpl, compared to vehicle-treated LPC mice",accelerated tissue repair
same,axons/mm^2,spinal cord LPC lesion; [2],increased
same,percentage of axons remyelinated,spinal cord LPC lesion; [2],increased
same,total axons in lesions,spinal cord LPC lesion; [2],increased
same,total remyelinated,spinal cord LPC lesion; [2],increased
